Experimental data published in patent US11123337B2, “4-methylsulfonyl-substituted piperidine urea compounds” (MYOKARDIA, INC., priority 2015, dated 2021).

Biological target: bovine cardiac myosin (Bos taurus, UniProt Q9BE39)
Experiment: Myosin activation assay (PK/LDH-coupled ATPase, bovine cardiac myofibrils)
Format: biochemical
Settings: AC20 = concentration at which total response is increased by twenty percent
Summary of the method: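 Skinned bovine cardiac myofibrils (1 mg/mL) in PIPES/MgCl2 buffer pH 6.8 at free Ca2+ giving ~50% (pCa ~6) or <5% (pCa 10) activation, with 50 μM ATP and 3.3% DMSO. ATPase rate from NADH absorbance at 340 nm (PK/LDH coupling) over 15 min at ambient temperature. AC20/AC50 from a four-parameter fit of DMSO-normalised rates.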

Sequence of bovine cardiac myosin (Q9BE39 whole entry): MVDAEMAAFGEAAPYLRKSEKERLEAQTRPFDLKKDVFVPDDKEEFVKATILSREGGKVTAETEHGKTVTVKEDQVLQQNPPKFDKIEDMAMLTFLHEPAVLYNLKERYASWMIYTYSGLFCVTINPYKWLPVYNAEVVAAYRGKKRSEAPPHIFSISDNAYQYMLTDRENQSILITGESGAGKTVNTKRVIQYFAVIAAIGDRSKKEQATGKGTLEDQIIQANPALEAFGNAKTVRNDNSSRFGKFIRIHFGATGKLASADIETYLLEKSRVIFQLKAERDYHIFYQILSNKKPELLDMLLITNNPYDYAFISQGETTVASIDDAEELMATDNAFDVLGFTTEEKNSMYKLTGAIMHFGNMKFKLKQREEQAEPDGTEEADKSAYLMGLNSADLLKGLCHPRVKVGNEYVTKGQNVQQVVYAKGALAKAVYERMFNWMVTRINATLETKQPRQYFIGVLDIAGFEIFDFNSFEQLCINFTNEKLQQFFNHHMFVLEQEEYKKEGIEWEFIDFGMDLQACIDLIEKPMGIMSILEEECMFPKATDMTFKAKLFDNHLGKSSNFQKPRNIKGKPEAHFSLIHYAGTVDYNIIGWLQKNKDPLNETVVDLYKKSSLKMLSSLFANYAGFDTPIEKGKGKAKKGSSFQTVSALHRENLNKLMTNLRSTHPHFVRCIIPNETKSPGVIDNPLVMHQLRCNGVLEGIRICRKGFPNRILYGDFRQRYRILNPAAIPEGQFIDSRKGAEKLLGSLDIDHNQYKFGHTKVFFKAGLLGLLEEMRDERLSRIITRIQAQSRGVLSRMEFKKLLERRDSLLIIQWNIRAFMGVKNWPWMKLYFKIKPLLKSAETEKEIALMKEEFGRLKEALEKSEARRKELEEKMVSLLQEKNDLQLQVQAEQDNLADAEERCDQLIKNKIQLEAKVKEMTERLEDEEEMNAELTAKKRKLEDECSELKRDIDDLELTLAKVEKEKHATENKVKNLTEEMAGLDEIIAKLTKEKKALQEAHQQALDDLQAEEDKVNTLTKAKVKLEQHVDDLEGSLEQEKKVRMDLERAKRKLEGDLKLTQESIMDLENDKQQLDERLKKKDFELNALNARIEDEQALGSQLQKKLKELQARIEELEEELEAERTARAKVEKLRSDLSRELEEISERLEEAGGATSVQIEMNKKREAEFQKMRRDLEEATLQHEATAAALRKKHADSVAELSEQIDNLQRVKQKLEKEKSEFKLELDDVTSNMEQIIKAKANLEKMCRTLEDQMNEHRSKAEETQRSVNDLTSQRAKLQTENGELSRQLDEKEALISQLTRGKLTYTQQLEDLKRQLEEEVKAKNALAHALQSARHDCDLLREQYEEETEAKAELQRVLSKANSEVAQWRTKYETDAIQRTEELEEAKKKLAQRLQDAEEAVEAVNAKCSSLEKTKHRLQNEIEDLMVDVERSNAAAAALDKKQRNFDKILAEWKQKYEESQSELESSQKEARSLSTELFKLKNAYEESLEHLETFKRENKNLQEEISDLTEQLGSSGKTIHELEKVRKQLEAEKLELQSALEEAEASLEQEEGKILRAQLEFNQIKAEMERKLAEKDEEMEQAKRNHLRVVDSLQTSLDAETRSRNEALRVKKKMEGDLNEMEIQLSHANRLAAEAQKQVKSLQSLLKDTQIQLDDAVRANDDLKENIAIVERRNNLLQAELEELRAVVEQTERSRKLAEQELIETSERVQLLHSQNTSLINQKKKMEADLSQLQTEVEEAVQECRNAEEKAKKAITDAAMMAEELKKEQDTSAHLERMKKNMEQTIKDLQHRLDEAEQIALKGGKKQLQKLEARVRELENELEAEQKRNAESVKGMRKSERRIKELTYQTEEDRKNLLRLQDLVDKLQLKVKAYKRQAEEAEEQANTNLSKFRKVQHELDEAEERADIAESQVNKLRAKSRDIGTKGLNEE
Sequence of bovine cardiac myosin (P85100 whole entry partner): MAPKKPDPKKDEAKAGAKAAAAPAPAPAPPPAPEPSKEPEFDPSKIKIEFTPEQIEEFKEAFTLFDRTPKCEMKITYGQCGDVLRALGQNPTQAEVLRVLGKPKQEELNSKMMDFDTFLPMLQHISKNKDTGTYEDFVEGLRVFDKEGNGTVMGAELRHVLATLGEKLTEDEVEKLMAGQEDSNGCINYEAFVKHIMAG
Sequence of bovine cardiac myosin (Q3SZE5 whole entry partner): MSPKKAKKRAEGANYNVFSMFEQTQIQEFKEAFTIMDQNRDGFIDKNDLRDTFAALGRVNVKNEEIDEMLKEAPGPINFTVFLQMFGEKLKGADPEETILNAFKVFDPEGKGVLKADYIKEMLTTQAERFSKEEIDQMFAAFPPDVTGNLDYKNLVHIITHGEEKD

SMILES | Myosin Activation (AC20)
CC(C)(C1CCN(C(=O)Nc2cc[nH]n2)CC1)S(=O)(=O)c1cccc(F)c1 [Compound 147, 4-(2-((3-fluorophenyl)sulfonyl)propan-2-yl)-N-(1H-pyrazol-3-yl)piperidine-1-carboxamide] | + (+ represents myosin activation value AC20 > 5 μM)
C[C@@H](O)c1cc(NC(=O)N2CCC([C@](C)(F)S(=O)(=O)c3cccc(F)c3)CC2)ccn1 [Compound 303, 4-((R)-1-fluoro-1-((3-fluorophenyl)sulfonyl)ethyl)-N-(2-((R)-1-hydroxyethyl)pyridin-4-yl)piperidine-1-carboxamide] | + (+ represents myosin activation value AC20 > 5 μM)
[2H]C([2H])([2H])n1cc(S(=O)(=O)[C@@](F)(C2CCN(C(=O)Nc3ccon3)CC2)C([2H])([2H])[2H])c(C(F)F)n1 [Compound 306, (R)-4-(1-((3-(difluoromethyl)-1-(methyl-d3)-1H-pyrazol-4-yl)sulfonyl)-1-fluoroethyl-2,2,2-d3)-N-(isoxazol-3-yl)piperidine-1-carboxamide] | +++ (+++ represents myosin activation value AC20 < 2 μM)
COc1ncccc1S(=O)(=O)C(C)(F)C1CCN(C(=O)Nc2ccnnc2)CC1 (stereo not drawn) [Compound 55, 4-(1-fluoro-1-((2-methoxypyridin-3-yl)sulfonyl)ethyl)-N-(pyridazin-4-yl)piperidine-1-carboxamide] | ++ (++ represents myosin activation value AC20 from 2 μM-5 μM)
O=C(Nc1ccnnc1)N1CCC(C(F)(F)S(=O)(=O)c2cccc3c2COC3)CC1 [Compound 71, 4-(((1,3-dihydroisobenzofuran-4-yl)sulfonyl)difluoromethyl)-N-(pyridazin-4-yl)piperidine-1-carboxamide] | ++ (++ represents myosin activation value AC20 from 2 μM-5 μM)
O=C(Nc1ccnnc1)N1CCC(C(F)(F)S(=O)(=O)c2ccc(O)cc2Cl)CC1 [Compound 92, 4-(((2-chloro-4-hydroxyphenyl)sulfonyl)difluoromethyl)-N-(pyridazin-4-yl)piperidine-1-carboxamide] | ++ (++ represents myosin activation value AC20 from 2 μM-5 μM)
Cn1nccc1S(=O)(=O)C(C)(F)C1CCN(C(=O)Nc2ccon2)CC1 (stereo not drawn) [Compound 280, 4-(1-fluoro-1-((1-methyl-1H-pyrazol-5-yl)sulfonyl)ethyl)-N-(isoxazol-3-yl)piperidine-1-carboxamide] | + (+ represents myosin activation value AC20 > 5 μM)
O=C(Nc1ccnnc1)N1CCC(C(F)(F)S(=O)(=O)c2ccccc2CO)CC1 [Compound 25, 4-(Difluoro((2-(hydroxymethyl)phenyl)sulfonyl)methyl)-N-(pyridazin-4-yl)piperidine-1-carboxamide] | ++ (++ represents myosin activation value AC20 from 2 μM-5 μM)
COc1ccc(NC(=O)N2CCC(C(C)(C)S(=O)(=O)c3cccc(F)c3)CC2)cn1 [Compound 161, 4-(2-((3-fluorophenyl)sulfonyl)propan-2-yl)-N-(6-methoxypyridin-3-yl)piperidine-1-carboxamide] | + (+ represents myosin activation value AC20 > 5 μM)
Cn1nccc1S(=O)(=O)C1(C2CCN(C(=O)Nc3cnns3)CC2)CCC1 [Compound 175, 4-(1-((1-methyl-1H-pyrazol-5-yl)sulfonyl)cyclobutyl)-N-(1,2,3-thiadiazol-5-yl)piperidine-1-carboxamide] | +++ (+++ represents myosin activation value AC20 < 2 μM)
Cc1cc(NC(=O)N2CCC(C(C)(C)S(=O)(=O)c3cn(C)nc3C(F)F)CC2)cnn1 [Compound 154, 4-(2-((3-(difluoromethyl)-1-methyl-1H-pyrazol-4-yl)sulfonyl)propan-2-yl)-N-(6-methylpyridazin-4-yl)piperidine-1-carboxamide] | + (+ represents myosin activation value AC20 > 5 μM)
Cn1cc(S(=O)(=O)[C@@](C)(F)C2CCN(C(=O)Nc3ccc(C(N)=O)nc3)CC2)c(C(F)F)n1 [Compound 300, (R)-5-(4-(1-((3-(difluoromethyl)-1-methyl-1H-pyrazol-4-yl)sulfonyl)-1-fluoroethyl)piperidine-1-carboxamido)picolinamide] | ++ (++ represents myosin activation value AC20 from 2 μM-5 μM)
O=C(Nc1ccnnc1)N1CCC(C(F)(F)S(=O)(=O)c2ccc3ccnn3c2)CC1 [Compound 91, 4-(difluoro(pyrazolo[1,5-a]pyridin-6-ylsulfonyl)methyl)-N-(pyridazin-4-yl)piperidine-1-carboxamide] | ++ (++ represents myosin activation value AC20 from 2 μM-5 μM)
Cn1nccc1-c1ccc(S(=O)(=O)C(F)(F)C2CCN(C(=O)Nc3ccnnc3)CC2)cc1 [Compound 58, 4-(difluoro((4-(1-methyl-1H-pyrazol-5-yl)phenyl)sulfonyl)methyl)-N-(pyridazin-4-yl)piperidine-1-carboxamide] | + (+ represents myosin activation value AC20 > 5 μM)
Cn1nc(C(F)F)cc1S(=O)(=O)C(C)(C)C1CCN(C(=O)Nc2ccon2)CC1 [Compound 108, 4-(2-((3-(difluoromethyl)-1-methyl-1H-pyrazol-5-yl)sulfonyl)propan-2-yl)-N-(isoxazol-3-yl)piperidine-1-carboxamide] | ++ (++ represents myosin activation value AC20 from 2 μM-5 μM)
Cn1cc(S(=O)(=O)[C@@](C)(F)C2CCN(C(=O)Nc3cc[nH]n3)CC2)c(C(F)F)n1 [Compound 290, (R)-4-(1-((3-(difluoromethyl)-1-methyl-1H-pyrazol-4-yl)sulfonyl)-1-fluoroethyl)-N-(1H-pyrazol-3-yl)piperidine-1-carboxamide] | ++ (++ represents myosin activation value AC20 from 2 μM-5 μM)
Cn1cc(S(=O)(=O)C(F)(F)C2CCN(C(=O)Nc3ccon3)CC2)c(C(F)F)n1 [Compound 82, 4-(((3-(difluoromethyl)-1-methyl-1H-pyrazol-4-yl)sulfonyl)difluoromethyl)-N-(isoxazol-3-yl)piperidine-1-carboxamide] | + (+ represents myosin activation value AC20 > 5 μM)
O=C(Nc1ccnnc1)N1CCC(C(F)(F)S(=O)(=O)c2cc(OC(F)(F)F)ccc2Cl)CC1 [Compound 74, 4-(((2-chloro-5-(trifluoromethoxy)phenyl)sulfonyl)difluoromethyl)-N-(pyridazin-4-yl)piperidine-1-carboxamide] | +++ (+++ represents myosin activation value AC20 < 2 μM)
CC(C)(C1CCN(C(=O)Nc2ccnnc2)CC1)S(=O)(=O)c1ccc(C(F)(F)F)cc1 [Compound 181, N-(pyridazin-4-yl)-4-(2-((4-(trifluoromethyl)phenyl)sulfonyl)propan-2-yl)piperidine-1-carboxamide] | ++ (++ represents myosin activation value AC20 from 2 μM-5 μM)
Cc1ccc(NC(=O)N2CCC(C(C)(C)S(=O)(=O)c3ccnn3C)CC2)cn1 [Compound 135, 4-(2-((1-methyl-1H-pyrazol-5-yl)sulfonyl)propan-2-yl)-N-(6-methylpyridin-3-yl)piperidine-1-carboxamide] | + (+ represents myosin activation value AC20 > 5 μM)
CC(C)(C1CCN(C(=O)Nc2ccon2)CC1)S(=O)(=O)c1ccc(C(F)(F)F)nc1 [Compound 113, N-(isoxazol-3-yl)-4-(2-((6-(trifluoromethyl)pyridin-3-yl)sulfonyl)propan-2-yl)piperidine-1-carboxamide] | + (+ represents myosin activation value AC20 > 5 μM)
